Common to all, as to format: functional
Test [1] deals with Mus musculus. Kind of test: Tested for analgesic activity, using Tail-Flick test in Mice at the dose of 0.1 ug/mouse administered icv after 5 min.
Test [2] concerns Mus musculus. Description: Tested for analgesic activity, using Tail-Flick test in Mice at the dose of 0.5 ug/mouse administered icv after 60 min. (In general: Hot-plate and tail-flick tests time the reaction to a heat stimulus.)
Test [3] deals with Mus musculus. Description: Tested for analgesic activity, using Tail-Flick test in Mice at the dose of 1 ug/mouse administered icv after 30 min.
The test system of test [4] is Mus musculus. Description: Tested for analgesic activity, using Tail-Flick test in Mice at the dose of 0.1 ug/mouse administered icv after 30 min.
Test [5] concerns Mus musculus. Description: Tested for analgesic activity, using Tail-Flick test in Mice at the dose of 0.1 ug/mouse administered icv after 60 min.
The subject of test [6] is Mus musculus. Kind of test: Tested for analgesic activity, using Tail-Flick test in Mice at the dose of 1 ug/mouse administered icv after 5 min.
Test [7] concerns Mus musculus. Kind of test: Tested for analgesic activity, using Tail-Flick test in Mice at the dose of […] administered icv after 30 min.
Test [8] has as its system Mus musculus. Description: Tested for analgesic activity, using Tail-Flick test in Mice at the dose of 1 ug/mouse administered icv after 60 min.
Test [9] deals with Mus musculus. Kind of test: Tested for analgesic activity, using Tail-Flick test in Mice at the dose of 0.5 ug/mouse administered icv after 5 min.
The subject of test [10] is Mus musculus. Kind of test: Tested for analgesic activity, using Tail-Flick test in Mice at the dose of 2.5 ug/mouse administered icv after 5 min.
Test [11] has as its system Mus musculus. Description: Tested for analgesic activity, using Tail-Flick test in Mice at the dose of 0.5 ug/mouse administered icv after 30 min.
Test [12] has as its system Mus musculus. Kind of test: Tested for analgesic activity, using Tail-Flick test in Mice at the dose of 2.5 ug/mouse administered icv after 30 min.
The subject of test [13] is Mus musculus. Description: Tested for analgesic activity, using Tail-Flick test in Mice at the dose of 2.5 ug/mouse administered icv after 60 min.
Test [14] deals with Mus musculus. Description: Tested for analgesic activity, using Tail-Flick test in Mice at the dose of 0.5 ug/mouse administered icv after 5 min.

We go through three molecules from ChEMBL document CHEMBL1123838, “Analgesic dipeptide derivatives. 3. Synthesis and structure-activity relationships of o-nitrophenyl-modified analogues of the analgesic compound H-Lys-Trp(NPS)-OMe” (1987).

Molecules are shown by their SMILES. Peptide text beside a SMILES is read from it.

Regarding `CSCC[C@H](N)C(=O)N[C@@H](C)C(=O)NCC(=O)NCC(=O)N[C@@H](Cc1ccc(O)cc1)C(N)=O` (H-MAGGY-NH2), the Change in the test on Mus musculus [1] is 40%; in the test on Mus musculus [2] it was 35%; in the test on Mus musculus [3], 118%; with Mus musculus [4], 26%; in the test on Mus musculus [5] it was -7%; in the test on Mus musculus [6], 210%. Besides, the Change is recorded as 76% with Mus musculus [7], 45% with Mus musculus [8] and 122% in the test on Mus musculus [9].

For the molecule `COC(=O)C(Cc1cn(Sc2ccccc2NC(C)=O)c2ccccc12)NC(=O)C(N)CCCCN` (configuration not stated), the Change in the test on Mus musculus [10] is 27%; in the test on Mus musculus [2], 5%; in the test with Mus musculus [11], -2%; in the test on Mus musculus [3], 20%; in the test with Mus musculus [12], 26%; with Mus musculus [13] it was 10%. Further, the Change in the test on Mus musculus [6] was 25%; in the test with Mus musculus [8], 15%; in the test with Mus musculus [14] it was 0%.

Turning to `COC(=O)CCSn1cc(CC(NC(=O)C(N)CCCCN)C(=O)OC)c2ccccc21` (configuration not stated), the Change in the test with Mus musculus [10] came to 16%; with Mus musculus [2], 9%; in the test on Mus musculus [11], 10%; in the test with Mus musculus [3], 7%; in the test on Mus musculus [12] it was 15%; with Mus musculus [13], 0%. Moreover, the Change amounted to 15% with Mus musculus [6], 9% in the test on Mus musculus [8] and 11% in the test with Mus musculus [14].
